Assays:
[1] = tested on: DMS-273 (Small Cell Lung Carcinoma); experiment: Bliss excess, mean over the matrix (fraction); higher = more synergy
Summary of the method: (§1)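 Bliss excess equals the observed combination effect minus the expected value EA + EB − EA·EB, where EA and EB are the effects of each agent alone. Combination Emax is the second-highest inhibition within the matrix. Inhibition was scaled from CellTiter-Glo 2.0 luminescence, with 0 set by vehicle wells and 1 by blank wells, after 72 hours of two-drug dosing of cells plated in 1536-well plates.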

SN12C (Kidney Carcinoma) = experiment: as above
Summary of the method: as §1

[2] = tested on: NCI-H1781 (Lung Adenocarcinoma); experiment: as above
Summary of the method: as §1

[3] = tested on: NCI-H1299 (Non-Small Cell Lung Carcinoma); experiment: as above
Summary of the method: as §1

NCI-H2369 (Mesothelioma) = experiment: as above
Summary of the method: as §1

[4] = tested on: COR-L95 (Small Cell Lung Carcinoma); experiment: as above
Summary of the method: as §1

[5] = tested on: CTV-1 (T-Lymphoblastic Leukemia); experiment: as above
Summary of the method: as §1

[6] = tested on: NCI-H1793 (Lung Adenocarcinoma); experiment: as above
Summary of the method: as §1

[7] = tested on: OCI-AML2 (Acute Myeloid Leukemia); experiment: as above
Summary of the method: as §1

[8] = tested on: DMS-273 (Small Cell Lung Carcinoma); experiment: combination Emax (second highest fraction inhibited in the dose matrix, 72 h); higher = more inhibition; extreme values may be limits of the assay
Summary of the method: as §1

[9] = tested on: TGBC24TKB (Biliary Tract Carcinoma); experiment: as above
Summary of the method: as §1

[10] = tested on: NCI-H1781 (Lung Adenocarcinoma); experiment: as above
Summary of the method: as §1

[11] = tested on: HPAC (Pancreatic Carcinoma); experiment: as above
Summary of the method: as §1

IGR-1 (Melanoma) = experiment: as above
Summary of the method: as §1

[12] = tested on: COR-L95 (Small Cell Lung Carcinoma); experiment: as above
Summary of the method: as §1

[13] = tested on: NALM-6 (B-Lymphoblastic Leukemia); experiment: as above
Summary of the method: as §1

NCI-H2595 (Mesothelioma) = experiment: as above
Summary of the method: as §1

[14] = tested on: G-292-Clone-A141B1 (Osteosarcoma); experiment: as above
Summary of the method: as §1

[15] = tested on: IHH-4 (Thyroid Gland Carcinoma); experiment: as above
Summary of the method: as §1

[16] = tested on: OCI-AML2 (Acute Myeloid Leukemia); experiment: as above
Summary of the method: as §1

Row | SMILES | Bliss excess [1] | Bliss excess (SN12C (Kidney Carcinoma)) | Bliss excess [2] | Bliss excess [3] | Bliss excess (NCI-H2369 (Mesothelioma)) | Bliss excess [4] | Bliss excess [5] | Bliss excess [6] | Bliss excess [7] | combination Emax [8] | combination Emax [9] | combination Emax [10] | combination Emax [11] | combination Emax (IGR-1 (Melanoma)) | combination Emax [12] | combination Emax [13] | combination Emax (NCI-H2595 (Mesothelioma)) | combination Emax [14] | combination Emax [15] | combination Emax [16]
1 | CCN(CCO)CCCOc1ccc2c(Nc3cc(CC(=O)Nc4cccc(F)c4)[nH]n3)ncnc2c1 [AZD2811] + O=C(c1cc(Cc2n[nH]c(=O)c3ccccc23)ccc1F)N1CCN(C(=O)C2CC2)CC1 [Olaparib] (first compound max 1 µM, 7x7, partner max 10 µM) | -0.0044 | 0.0151 | -0.0293 | -0.0131 | 0.0055 | -0.0526 | 0.0712 | -0.0264 | -0.0351 | 0.735 | 0.564 | 0.67 | 0.21 | 0.168 | 0.436 | 0.873 | 0.226 | 0.304 | 0.459 | 0.873
2 | CN(CCO)CC[C@H](CSc1ccccc1)Nc1ccc(S(=O)(=O)NC(=O)c2ccc(N3CCC([C@@H](O)c4ccccc4-c4ccc(Cl)cc4)CC3)cc2)cc1S(=O)(=O)C(F)(F)F [AZD4320] + C1CN(CCC1(C(=O)N[C@@H](CCO)C2=CC=C(C=C2)Cl)N)C3=NC=NC4=C3C=CN4 [Capivasertib] (first compound max 1 µM, 7x7, partner max 3 µM) | -0.0782 | -0.0636 | -0.0313 | -0.029 | 0.0332 | -0.0203 | -0.0365 | -0.0106 | -0.0333 | 0.713 | 0.687 | 0.341 | 0.137 | 0.256 | 1 | 0.983 | 0.151 | 0.754 | 0.171 | 1
3 | CN(CCO)CC[C@H](CSc1ccccc1)Nc1ccc(S(=O)(=O)NC(=O)c2ccc(N3CCC([C@@H](O)c4ccccc4-c4ccc(Cl)cc4)CC3)cc2)cc1S(=O)(=O)C(F)(F)F [AZD4320] + C=CCn1c(=O)c2cnc(Nc3ccc(N4CCN(C)CC4)cc3)nc2n1-c1cccc(C(C)(C)O)n1 [AZD1775] (first compound max 1 µM, partner max 1 µM) | -0.0229 | -0.0099 | -0.003 | -0.0107 | -0.0413 | 0.0519 | -0.0115 | -0.0061 | 0.0312 | 0.708 | 0.682 | 0.563 | 1 | 0.934 | 1 | 1 | 0.141 | 0.559 | 0.694 | 1
4 | CN(CCO)CC[C@H](CSc1ccccc1)Nc1ccc(S(=O)(=O)NC(=O)c2ccc(N3CCC([C@@H](O)c4ccccc4-c4ccc(Cl)cc4)CC3)cc2)cc1S(=O)(=O)C(F)(F)F [AZD4320] + CCN(CCO)CCCOc1ccc2c(Nc3cc(CC(=O)Nc4cccc(F)c4)[nH]n3)ncnc2c1 [AZD2811] (first compound max 1 µM, 7x7, partner max 1 µM) | -0.0732 | -0.0249 | -0.0788 | -0.0237 | 0.0005 | 0.0522 | 0.0053 | -0.0421 | 0.0189 | 0.766 | 0.822 | 0.741 | 0.844 | 0.926 | 1 | 0.98 | 0.125 | 0.578 | 0.282 | 1
5 | CN(CCO)CC[C@H](CSc1ccccc1)Nc1ccc(S(=O)(=O)NC(=O)c2ccc(N3CCC([C@@H](O)c4ccccc4-c4ccc(Cl)cc4)CC3)cc2)cc1S(=O)(=O)C(F)(F)F [AZD4320] + CN(C)CCCOc1ccc(-c2ccc3ncc4c(c3c2)n(C2CCOCC2)c(=O)n4C)cn1 [AZD0156] (first compound max 1 µM, 7x7, partner max 1 µM) | -0.0199 | -0.0633 | -0.0694 | -0.0462 | -0.036 | 0.0046 | -0.0055 | -0.027 | -0.0296 | 0.247 | 0.598 | 0.183 | 0.371 | 0.342 | 1 | 0.973 | 0.12 | 0.647 | 0.224 | 1
6 | CN(CCO)CC[C@H](CSc1ccccc1)Nc1ccc(S(=O)(=O)NC(=O)c2ccc(N3CCC([C@@H](O)c4ccccc4-c4ccc(Cl)cc4)CC3)cc2)cc1S(=O)(=O)C(F)(F)F [AZD4320] + C[C@@H]1COCCN1C2=NC(=NC(=C2)C3(CC3)[S@](=N)(=O)C)C4=C5C=CNC5=NC=C4 [AZD6738] (first compound max 1 µM, 7x7, partner max 10 µM) | -0.025 | -0.0499 | -0.0005 | -0.016 | 0.0246 | -0.0234 | -0.0498 | -0.0272 | 0.0397 | 0.813 | 0.891 | 0.519 | 0.897 | 0.969 | 1 | 1 | 0.214 | 0.754 | 0.769 | 1
7 | CN(CCO)CC[C@H](CSc1ccccc1)Nc1ccc(S(=O)(=O)NC(=O)c2ccc(N3CCC([C@@H](O)c4ccccc4-c4ccc(Cl)cc4)CC3)cc2)cc1S(=O)(=O)C(F)(F)F [AZD4320] + C[C@@H](Nc1cc(F)cc(F)c1)c1cc(C(=O)N(C)C)cc2c(=O)cc(N3CCOCC3)oc12 [AZD8186] (first compound max 1 µM, 7x7, partner max 3 µM) | 0.0236 | -0.0193 | 0.0358 | 0.0118 | -0.0251 | 0.0256 | 0.0326 | 0.0516 | 0.0556 | 0.649 | 0.544 | 0.623 | 0.562 | 0.901 | 1 | 0.997 | 0.271 | 0.799 | 0.516 | 1
8 | CN(CCO)CC[C@H](CSc1ccccc1)Nc1ccc(S(=O)(=O)NC(=O)c2ccc(N3CCC([C@@H](O)c4ccccc4-c4ccc(Cl)cc4)CC3)cc2)cc1S(=O)(=O)C(F)(F)F [AZD4320] + Cc1cc2ncnn2cc1Nc1ncc2c(n1)n(C1CCOCC1)c(=O)n2C [AZD7648] (first compound max 1 µM, 7x7, partner max 10 µM) | 0.0127 | -0.0578 | -0.0388 | -0.0408 | -0.0411 | 0.0276 | 0.001 | 0.0025 | 0.0136 | 0.398 | 0.682 | 0.258 | 0.321 | 0.33 | 1 | 0.975 | 0.12 | 0.624 | 0.193 | 1
9 | CN(CCO)CC[C@H](CSc1ccccc1)Nc1ccc(S(=O)(=O)NC(=O)c2ccc(N3CCC([C@@H](O)c4ccccc4-c4ccc(Cl)cc4)CC3)cc2)cc1S(=O)(=O)C(F)(F)F [AZD4320] + Cn1cnc2c(F)c(Nc3ccc(Br)cc3Cl)c(C(=O)NOCCO)cc21 [Selumetinib] (first compound max 1 µM, 7x7, partner max 3 µM) | -0.0768 | -0.0015 | 0.0131 | 0.0505 | 0.0216 | -0.0067 | 0.0708 | 0.0496 | 0.0207 | 0.349 | 0.791 | 0.568 | 0.865 | 0.986 | 1 | 0.982 | 0.275 | 0.564 | 0.58 | 1
10 | COc1nnc2ccc(N3CCC(c4ccc(OCCN5CCN(C)C(=O)[C@H]5C)cc4)CC3)nn12 [AZD5153] + C=CCn1c(=O)c2cnc(Nc3ccc(N4CCN(C)CC4)cc3)nc2n1-c1cccc(C(C)(C)O)n1 [AZD1775] (first compound max 1 µM, partner max 1 µM) | -0.0377 | -0.128 | -0.0744 | -0.0278 | -0.0392 | 0.0012 | 0.0151 | -0.0548 | -0.0293 | 0.847 | 0.826 | 0.478 | 0.735 | 0.623 | 0.433 | 0.951 | 0.371 | 0.402 | 0.662 | 1
11 | COc1nnc2ccc(N3CCC(c4ccc(OCCN5CCN(C)C(=O)[C@H]5C)cc4)CC3)nn12 [AZD5153] + CC1(C)CCC(CN2CCN(c3ccc(C(=O)NS(=O)(=O)c4ccc(NCC5CCOCC5)c([N+](=O)[O-])c4)c(Oc4cnc5[nH]ccc5c4)c3)CC2)=C(c2ccc(Cl)cc2)C1 [Venetoclax] (first compound max 1 µM, 7x7, partner max 1 µM) | -0.0627 | -0.0343 | -0.0599 | -0.0496 | -0.0641 | 0.0382 | -0.0322 | -0.0104 | -0.0422 | 0.749 | 0.642 | 0.224 | 0.535 | 0.433 | 0.802 | 0.993 | 0.375 | 0.256 | 0.498 | 1
12 | COc1nnc2ccc(N3CCC(c4ccc(OCCN5CCN(C)C(=O)[C@H]5C)cc4)CC3)nn12 [AZD5153] + CCN(CCO)CCCOc1ccc2c(Nc3cc(CC(=O)Nc4cccc(F)c4)[nH]n3)ncnc2c1 [AZD2811] (first compound max 1 µM, 7x7, partner max 1 µM) | -0.0409 | 0.0129 | -0.129 | -0.0578 | -0.0563 | -0.0159 | 0.0988 | -0.0381 | 0.0016 | 0.901 | 0.765 | 0.517 | 0.649 | 0.522 | 0.308 | 0.938 | 0.465 | 0.366 | 0.682 | 1

From the supplement of paper PMC11061612
